Source: the NIST ThermoML archive (doi:10.1016/j.jct.2016.03.010)

Experiment: mn = molality of the nth substance listed, in mol/kg
Settings: 101 kPa, Liquid; for viscosity: Capillary tube (Ostwald / Ubbelohde) method; for mass density: Vibrating tube method

O=C(O)c1cccnc1 [3-carboxylpyridine] + O
Settings	mass density, 298.15 K [kg/m3]	mass density, 308.15 K [kg/m3]	mass density, 318.15 K [kg/m3]	viscosity, 298.15 K [mPa·s]	viscosity, 308.15 K [mPa·s]	viscosity, 318.15 K [mPa·s]
m1 = 0.0202	997.92	994.89	991.06	0.8951	0.7224	0.5972
m1 = 0.0365	998.6	995.55	991.69	0.8988	0.725	0.5992
m1 = 0.0529	999.27	996.21	992.33	0.9015	0.7275	0.601
m1 = 0.0695	999.95	996.87	992.96	0.905	0.7308	0.6051
m1 = 0.0863	1000.62	997.52	993.59	0.9088	0.734	0.6074
m1 = 0.1032	1001.3	998.17	994.23	0.9119	0.7368	0.6094
